Measured values published in paper doi:10.1101/2024.07.10.602890, “H105A peptide eye drops promote photoreceptor survival in murine and human models of retinal degeneration” (bioRxiv, 2024).
Ends that are not written are not given here.

Legend:
[1] = system: rd10 and rd10/Serpinf1−/− mice; experiment: BAX and BCL2 immunofluorescence of retinal sections after peptide eye drops; format: in vivo, mouse; conditions: eye drops 1 mg/ml, vs vehicle, five retinas per group
Procedure: Fig. 3: Eyedrops of 17-mer and H105A peptides decreased the BAX/BCL2 ratio in photoreceptors of rd10 and rd10/Serpinf1−/− mice (A and B) Immunostaining of retinas. Representative fluorescent micrographs of retinas from rd10 (A) and rd10/Serpinf1^−/− (B) mice treated with 17-mer or H105A peptides at 1 mg/ml via eye drops, along with vehicle-treated controls. Immunostaining was performed with antibodies against BAX or BCL2 (green), and DAPI (blue). Histograms show quantification of immunofluorescence intensity for BAX and BCL2 markers. […] Each individual data point represents the average of one retina, with statistical significance determined by unpaired t-test (***p < 0.0001, ****p < 0.00001). Scale bar = 40 μm.
(§1) Both eyes were oriented before enucleation to allow sectioning along the dorsal/ventral axis. Enucleated eyes from rd10 and rd10 × Serpinf1^−/− mice were incised in the cornea and fixed in 2.5% glutaraldehyde for 20 min and then in 10% neutral buffered formalin at 4°C for at least 48 h, followed by paraffin embedding, sectioning, and staining with either H&E or immunofluorescence procedures, as previously described ([28]). For fluorescence microscopy, antibodies, and 0.1 μg/ml DAPI were used to immunostain and nuclei counterstain the sections, respectively. Antibodies used in the study are in Table S3. Images were acquired using a ZEIS 700 confocal microscope. Fluorescence intensity was quantified using ImageJ as previously described ([14], [26]).

[2] = system: rd10 and rd10/Serpinf1−/− mice; experiment: Retinal histology (H&E), OS length and ONL thickness spider plots after peptide eye drops; format: in vivo, mouse; conditions: for outer nuclear layer (ONL) thickness vs vehicle-treated or untreated eyes / photoreceptor outer segment (OS) length vs vehicle-treated or untreated eyes / ONL thickness (spider plots): daily eye drops 1 mg/ml, P21; for outer nuclear layer (ONL) thickness vs vehicle-treated or untreated eyes / photoreceptor outer segment (OS) length vs vehicle-treated or untreated eyes: rd10 and rd10/Serpinf1−/− mice; for ONL thickness (spider plots): rd10 mice only
Procedure: Fig. 4: Effect of eyedrops of 17-mer and H105A peptides on photoreceptor morphology of rd10 and rd10/Serpinf1−/− mice (A and B) Histological Evaluation. Representative microphotographs of retina sections from rd10 (A) and rd10/Serpinf1−/− (B) mice treated with 17-mer, H105A, or R99A peptides at 1 mg/ml, or with vehicle (HBSS), compared to wild type C57Bl/6J mice. Sections were stained with hematoxylin and eosin. Spider Plot illustrate the thickness of the outer nuclear layer (ONL) in rd10 (C) and rd10/Serpinf1−/− (D) mice. Five retinas per group were analyzed and each data point represents the average ± SEM per location relative to the optic nerve (ON), analyzed using One-way ANOVA. Statistics for comparisons between H105A and vehicle is indicated by #p < 0.05, #p < 0.05, ##p < 0.01, ###p < 0.001). Statistics for comparisons between H105A and 17-mer is indicated by *p < 0.05. Scale bar = 50 μm.
as §1
To generate spider plots, the ONL thickness was measured from images acquired with light microscopy of the retina sections stained with H&E or images of retina sections stained with DAPI with a dorsal-ventral orientation. The ONL thickness in the entire retina sections was measured at 5 different positions from both sides of the optic nerve (ON) using ImageJ, as described before ([28]). Alternatively, for DAPI stained images, a customed macro implemented in ImageJ was used to select only the ONL.
Figure S2. Effects of extending the timeline or administering eye drops of 17-mer[H105A] peptide every other day in rd10 mic e.
Eye drops of H105A peptide solution were administered to r d1 0 mice either daily (Fig. S2A) or every other day (Fi g. S 2D). A total of 5 µl of a solution containing H105A peptide at 1 mg/ml in HBSS were applied as eye drops. The vehicle HBSS was added as eye drops in the contralateral eyes. […]
ONL thickness in r d10 mice compared to vehicle was also observed (Fi g. S 2E), with an improvement in a- […]
efficacy of peptide H105A eye drops either daily or every other day in an extended timeline to stabilize photoreceptor morphology and light response function loss in r d10 mice, however, these were less efficacious than daily H105A peptide eye drops.
(A) Scheme showing a timeline of peptide administration via daily eye drops of H105A peptide to r d10 mice between P15 and P2 4. […]
(B) Representative microphotographs of retinal cross sections of r d1 0 treated as in Fig. S2A and stained with hematoxylin and eosin are shown. […]
(D) Scheme showing a timeline of peptide administration via eye drops of H105A peptide to rd10 mice starting at P15 every other day until P23. Assays were at P25.
(E) Representative microphotographs of retinal cross sections of r d1 0 treated as in Fig. S2D and stained […]
average ± SD per location relative to the ON per genotype by unpaired t-test. *p < 0.05, […]
(F) ERG of r d1 0 mice at P25 and treated as in Fig. S2D were performed in response to a STR. […]

Sequence	BAX level in photoreceptors (immunofluorescence) [1]	BCL2 level in photoreceptors (immunofluorescence) [1]	outer nuclear layer (ONL) thickness vs vehicle-treated or untreated eyes [2]	photoreceptor outer segment (OS) length vs vehicle-treated or untreated eyes [2]	ONL thickness (spider plots) [2]	ONL thickness ([2]; rd10 mice, daily eye drops 5 μl of 1 mg/ml P15 until P24, assayed at P25)	ONL thickness compared to vehicle ([2]; rd10 mice, eye drops every other day P15 until P23, assayed at P25)
QRTESIIHRALYYDLIS [17-mer]	significantly decreased	increased	thicker outer nuclear layer	longer OS	restored ONL thickness	–	–
QRTESIIARALYYDLIS [H105A]	significantly decreased	increased	thicker outer nuclear layer	longer OS	to almost wild-type levels	rescue in the ONL thickness	rescue
